This is an account of results in ChEMBL document CHEMBL1149623, “Identification of antibacterial and antiviral activities of novel fused 1,2,4-triazine esters” (2007).

The subject of test [1] is HEK293. Nature of the test: Cytotoxicity against human HEK293 cells at 100 ug/mL after 96 hrs by MTT assay. The format is functional. In general terms: Tetrazolium dyes change colour on reduction, which living cells bring about.
Test [2] concerns HEK293. The experiment in a line: Cytotoxicity against human HEK293 cells at 2.5 ug/mL after 96 hrs by MTT assay. The format is functional.
Test [3] is described as follows: Cytotoxicity against monkey GMK cells at 25 ug/mL after 72 hrs by MTT assay. The format is functional, Chlorocebus aethiops.
Test [4] deals with Human adenovirus 5. Nature of the test: Antiviral activity against Human adenovirus 5 in HEK293 cells assessed as inhibition of virus titre at 200 ug/mL after 24 hrs by CPE method. The format is functional. Particulars: Human mastadenovirus C, HEK293, 24 h.
Test [5] in a line: Cytotoxicity against monkey GMK cells at 10 ug/mL after 24 hrs by MTT assay. The format is functional, Chlorocebus aethiops.
The nature of test [6]: Cytotoxicity against monkey GMK cells at 200 ug/mL after 24 hrs by MTT assay. It is filed as functional, Chlorocebus aethiops.
The nature of test [7]: Cytotoxicity against monkey GMK cells at 200 ug/mL after 120 hrs by MTT assay. The format is functional, Chlorocebus aethiops.
For test [8], the system named is HEK293. The experiment in a line: Cytotoxicity against human HEK293 cells at 10 ug/mL after 120 hrs by MTT assay. It is filed as functional.
Another test deals with Escherichia coli. The experiment in a line: Antibacterial activity against Escherichia coli ATCC 25922 at 100 mg/mL after 24 hrs by disc diffusion method. The format is functional.
Test [9] deals with Echovirus E9. The experiment in a line: Antiviral activity against Human echovirus 9 in GMK cells assessed as inhibition of virus titre at 100 ug/mL after 24 hrs by CPE method. It is filed as functional. As to conditions: Enterovirus B.
Test [10] concerns HEK293. Nature of the test: Cytotoxicity against human HEK293 cells at 25 ug/mL after 72 hrs by MTT assay. The format is functional.
Test [11] can be described thus: Cytotoxicity against monkey GMK cells at 100 ug/mL after 24 hrs by MTT assay. The format is functional, Chlorocebus aethiops.
The next test concerns Streptococcus pyogenes. The experiment in a line: Antibacterial activity against Streptococcus pyogenes at 100 mg/mL after 24 hrs by disc diffusion method. It is filed as functional.
The nature of test [12]: Cytotoxicity against monkey GMK cells at 100 ug/mL after 48 hrs by MTT assay. The format is functional, Chlorocebus aethiops.
A short description of test [13]: Cytotoxicity against monkey GMK cells at 50 ug/mL after 48 hrs by MTT assay. It is filed as functional, Chlorocebus aethiops.
A short description of test [14]: Cytotoxicity against monkey GMK cells at 2.5 ug/mL after 72 hrs by MTT assay. It is filed as functional, Chlorocebus aethiops.
Test [15] has as its system HEK293. The experiment in a line: Cytotoxicity against human HEK293 cells at 10 ug/mL after 72 hrs by MTT assay. It is filed as functional.
The subject of test [16] is HEK293. Nature of the test: Cytotoxicity against human HEK293 cells at 5 ug/mL after 72 hrs by MTT assay. The format is functional.
Test [17] in a line: Cytotoxicity against monkey GMK cells at 200 ug/mL after 96 hrs by MTT assay. It is filed as functional, Chlorocebus aethiops.
Test [18] relates to HEK293. Nature of the test: Cytotoxicity against human HEK293 cells at 5 ug/mL after 48 hrs by MTT assay. It is filed as functional.
For test [19], the system named is Human adenovirus 5. Nature of the test: Antiviral activity against Human adenovirus 5 in HEK293 cells assessed as virus titre at 100 ug/mL after 1 hr. The format is functional.
The test system of test [20] is Human adenovirus 5. The experiment in a line: Antiviral activity against Human adenovirus 5 in HEK293 cells assessed as virus titre at 200 ug/mL after 1 hr. The format is functional.
Test [21] is described as follows: Cytotoxicity against monkey GMK cells at 50 ug/mL after 72 hrs by MTT assay. It is filed as functional, Chlorocebus aethiops.
In the next test the test system is Staphylococcus aureus. The experiment in a line: Antibacterial activity against Staphylococcus aureus ATCC 25923 at 100 mg/mL after 24 hrs by disc diffusion method. The format is functional. For orientation: Agar diffusion results depend on both activity and mobility in agar.
Test [22] has as its system Staphylococcus epidermidis. The experiment in a line: Antibacterial activity against Staphylococcus epidermidis at 100 mg/mL after 24 hrs by disc diffusion method. The format is functional.
Test [23] has as its system Human adenovirus 5. The experiment in a line: Antiviral activity against Human adenovirus 5 in HEK293 cells assessed as inhibition of virus titre at 100 ug/mL after 24 hrs by CPE method. It is filed as functional. As to conditions: Human mastadenovirus C, HEK293, 24 h.
Test [24] relates to Human adenovirus 5. Nature of the test: Antiviral activity against Human adenovirus 5 in HEK293 cells assessed as inhibition of virus titre at 50 ug/mL after 24 hrs by CPE method. The format is functional. Particulars: Human mastadenovirus C, HEK293, 24 h.
Test [25] relates to Echovirus E9. Nature of the test: Antiviral activity against Human echovirus 9 in GMK cells assessed as inhibition of virus titre at 200 ug/mL after 24 hrs by CPE method. The format is functional. As to conditions: Enterovirus B.
In test [26] the test system is Echovirus E9. Nature of the test: Antiviral activity against Human echovirus 9 in GMK cells assessed as inhibition of virus titre at 50 ug/mL after 24 hrs by CPE method. The format is functional. As to conditions: Enterovirus B.

Each structure is given as a SMILES string.

By inhibition is commonly meant the share of the control response that was lost under treatment. As for `COC(=O)CC1NN=C2N(CCN2c2cccc(Cl)c2)C1=O` (configuration not stated), the Activity with HEK293 [1] came out at 50%; with HEK293 [2] it was 100%; in test [3], 95%; in test [5], 100%; in test [6] it was 80%; in test [7], 0%. The Activity in the test on HEK293 [8] is given as 100%; in the test on HEK293 [10], 98%; in test [11], 80%; in [12], 50%; in test [13], 95%; in test [14], 100%. Further, the Activity is recorded as 100% in the test with HEK293 [15]; 100% in the test with HEK293 [16]; 0% in [17]; 100% with HEK293 [18]; 95% in [21]. In the test on Human adenovirus 5 [4], the inhibition at 200 µg/mL was 8%. In addition, the Inhibition was >20 mm in the test on Escherichia coli, 10 mm in the test on Streptococcus pyogenes, 16 mm in the test on Staphylococcus aureus and 16 mm in test [22]. The inhibition at 100 µg/mL in the test with Echovirus E9 [9] was found to be 9.9%. In addition, the TCID50 with Human adenovirus 5 [19] amounted to 3.5 mL⁻¹; with Human adenovirus 5 [20], 3.23 mL⁻¹.
On to `CCOC(=O)CC1NN=C2N(CCN2c2ccc(C)cc2)C1=O` (configuration not stated), for which the Activity in the test on HEK293 [1] worked out at 70%; in the test with HEK293 [2] it was 100%; in test [3] it was 85%; in [5], 100%; in [6], 0%; in test [7], 0%. The Activity turned out to be 100% in the test on HEK293 [8]; 100% in the test on HEK293 [10]; 90% in test [11]; 80% in test [12]; 80% in [13]; 100% in [14]. The Activity in the test with HEK293 [15] is listed as 100%; in the test with HEK293 [16], 100%; in [17], 0%; with HEK293 [18] it was 100%; in test [21], 80%. Moreover, the inhibition at 200 µg/mL with Human adenovirus 5 [4] came to 23%. In addition, in the test with Human adenovirus 5 [23], the inhibition at 100 µg/mL was determined as 23%. For the same molecule, the inhibition at 50 µg/mL in the test with Human adenovirus 5 [24] amounted to 23%. Besides, the TCID50 with Human adenovirus 5 [19] and with Human adenovirus 5 [20] was 2.5 mL⁻¹ each time.
For the molecule `CCOC(=O)CC1NN=C2N(CCN2c2ccc(Cl)cc2)C1=O` (configuration not stated), the Activity in the test with HEK293 [1] was found to be 70%; with HEK293 [2] it was 100%; in [3], 100%; in test [5] it was 100%; in [6] it was 100%; in test [7] it was 95%. Further, the Activity (in the test with HEK293 [8]; in the test on HEK293 [10]; in [11]; in [12]; in test [13]; in test [14]) was 100% in each case. The Activity in the test on HEK293 [15] is 100%; in the test with HEK293 [16], 100%; in test [17], 95%; with HEK293 [18] it was 100%; in test [21], 100%. Moreover, the Inhibition with Escherichia coli is given as 10 mm; with Streptococcus pyogenes, >20 mm; with Staphylococcus aureus, <9 mm; in test [22], 16 mm. In addition, the inhibition at 200 µg/mL with Echovirus E9 [25] was 25%. Further, the inhibition at 50 µg/mL with Echovirus E9 [26] was 9.4%. For the same molecule, the TCID50 in the test with Human adenovirus 5 [19] and in the test with Human adenovirus 5 [20] was 3.5 mL⁻¹ each time.
